{"source": "paper PMC5281649", "about": "(European Journal of Nuclear Medicine and Molecular Imaging, 2016)", "key": {"brain MAO-B enzyme": {"target": "T1, brain MAO-B enzyme (Homo sapiens, UniProt P27338)", "T1 sequence (P27338 1-520)": "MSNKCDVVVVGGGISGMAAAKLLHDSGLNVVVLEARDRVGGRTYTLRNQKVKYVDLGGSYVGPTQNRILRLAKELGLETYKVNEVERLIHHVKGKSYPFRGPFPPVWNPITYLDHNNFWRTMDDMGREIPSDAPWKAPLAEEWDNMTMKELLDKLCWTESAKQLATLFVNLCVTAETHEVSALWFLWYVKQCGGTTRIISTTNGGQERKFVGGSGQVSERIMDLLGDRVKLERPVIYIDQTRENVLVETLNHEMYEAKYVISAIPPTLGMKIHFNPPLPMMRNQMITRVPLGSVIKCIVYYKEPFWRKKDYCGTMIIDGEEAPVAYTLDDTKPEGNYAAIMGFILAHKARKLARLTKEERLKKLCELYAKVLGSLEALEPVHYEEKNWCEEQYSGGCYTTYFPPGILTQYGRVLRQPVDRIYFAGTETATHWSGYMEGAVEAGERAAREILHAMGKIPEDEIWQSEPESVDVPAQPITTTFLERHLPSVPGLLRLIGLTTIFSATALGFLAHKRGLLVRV", "test": "PET with [11C]-L-deprenyl-D2: brain MAO-B inhibition after repeated oral sembragiline", "format": "in vivo", "details": "mean (range); for [11C]-L-deprenyl-D2 λk3 post-dose: EC subjects; for [11C]-L-deprenyl-D2 λk3 post-dose / receptor occupancy at 0.2 mg: N = 3; for receptor occupancy at 0.2 mg / receptor occupancy at 5 mg / receptor occupancy at 1 mg / receptor occupancy at 0.1 mg: human, AD patients, read-out: Occ (MAO-B occupancy); for receptor occupancy at 0.2 mg: 168 h; for receptor occupancy at 5 mg: 216 h, 5 mg q.d. for 6–9 days; for receptor occupancy at 5 mg / receptor occupancy at 1 mg / receptor occupancy at 0.1 mg: N = 2; for receptor occupancy at 1 mg: 336 h; for receptor occupancy at 0.1 mg: 360 h, 5 mg loading day 1 then 0.1 mg q.d. days 2–15", "description": "The first dose was administered at the study centre under the supervision of study personnel. On subsequent study days, treatment compliance was assured by intake logs and tablet counting.\nAt baseline, each subject underwent a PET scan using [^11C]-L-deprenyl-D2 to measure MAO-B enzyme activity in the brain prior to their first dose of allocated medication. The second scan was performed at trough concentrations at steady state prior to the last drug administration. Before each scan, a cannula was inserted into a radial artery and another into an antecubital vein. A sterile phosphate buffer (pH = 7.4) containing radioligand was injected as a bolus over several seconds into the cubital vein.\nA transmission scan was performed using three rotating ^68Ge rod sources. [^11C]-L-Deprenyl-D2 was injected intravenously as a bolus, and emission data were acquired over 63 min using the ECAT EXACT high-resolution system (Siemens Medical Solutions, Malvern, PA, USA). The injected radioactivity was targeted to approximately 300 MBq. The injected mass of deprenyl was to be ≤100 μg, and ≥50–100-fold lower than the typical administered dose of 5–10 mg deprenyl to patients with Parkinson’s disease. The framing was as follows: 9 frames x 10 s, 2 frames x 15 s, 3 frames x 20 s, 4 frames x 30 s, 4 frames x 60 s, 4 frames x 180 s, 7 frames x 360 s. Images were reconstructed using the standard filtered back-projection, with a 2-mm Hanning filter, a zoom factor of 2.17, and a 128 × 128 matrix, and were corrected for attenuation and scatter. A summation PET image was created for each subject and PET session by averaging across all frames. Time–activity curves were then extracted from selected ROIs.\nArterial blood samples were used for measurement of radioactivity in whole blood and plasma, as well as to determine the parent fraction of the radioligand, using a reversed-phase high-performance liquid chromatography method (Karolinska University Hospital, Solna, Stockholm, Sweden). A catheter was inserted in the radial artery, and arterial blood was collected continuously for 10 min using an automated blood sampling system at a speed of 5 mL/min. Discrete blood samples were drawn approximately 10, 15, 20, 30, 45 and 60 min after each injection of [^11C]-L-deprenyl-D2.\nTime–activity data were analysed as previously described. Briefly, [^11C]-L-deprenyl-D2 was quantified by the two-tissue compartment model with three rate constants (K 1, k 2, k 3) using the PMOD 3.3 software package (PMOD Group, Zurich, Switzerland), where the tissue compartments represent the free plus non-specifically bound and specifically bound radiotracer. The outcome measure λk 3 was calculated as (K 1/k 2)*k 3, using a non-linear approach, and was used as an estimate for specific binding to MAO-B that was independent of perfusion. […] This is because λk3 is independent of perfusion and has better reproducibility than k3 alone."}, "[1]": {"test": "Safety assessments in this PET study", "format": "in vivo, human", "description": "The safety of sembragiline was assessed by monitoring vital signs, laboratory tests and adverse events (AEs), and by evaluating the risk of suicide using the Columbia Suicide Severity Rating Scale."}, "[2]": {"details": "1 and 5 mg daily; moderate AD; compared with placebo; cited from earlier work"}, "[3]": {"details": "1 mg q.d. for 14 days, hippocampus"}, "[4]": {"details": "1 mg q.d. for 14 days, parietal cortex"}, "[5]": {"details": "1 mg q.d. for 14 days, striatum"}, "[6]": {"details": "1 mg q.d. for 14 days, thalamus"}, "[7]": {"details": "1 mg q.d. for 14 days, whole brain"}, "[8]": {"details": "5 mg loading day 1 then 0.2 mg q.d. days 2–7, frontal cortex"}, "[9]": {"details": "5 mg loading day 1 then 0.2 mg q.d. days 2–7, hippocampus"}, "[10]": {"details": "5 mg loading day 1 then 0.2 mg q.d. days 2–7, parietal cortex"}, "[11]": {"details": "5 mg loading day 1 then 0.2 mg q.d. days 2–7, striatum"}, "[12]": {"details": "5 mg loading day 1 then 0.2 mg q.d. days 2–7, thalamus"}, "[13]": {"details": "5 mg loading day 1 then 0.2 mg q.d. days 2–7, whole brain"}}, "note": "Like-named read-outs stand apart in the source and are kept apart here."}
{"smiles": "CC(=O)N[C@H]1CC(=O)N(c2ccc(OCc3cccc(F)c3)cc2)C1", "note": "[sembragiline]", "values": [{"measurement": "[11C]-L-deprenyl-D2 λk3 post-dose", "setting": "brain MAO-B enzyme; [3]", "value": "0.04 (0.03–0.05)"}, {"measurement": "[11C]-L-deprenyl-D2 λk3 post-dose", "setting": "brain MAO-B enzyme; [4]", "value": "0.04 (0.04–0.05)"}, {"measurement": "[11C]-L-deprenyl-D2 λk3 post-dose", "setting": "brain MAO-B enzyme; [5]", "value": "0.05 (0.04–0.06)"}, {"measurement": "[11C]-L-deprenyl-D2 λk3 post-dose", "setting": "brain MAO-B enzyme; [6]", "value": "0.05 (0.04–0.05)"}, {"measurement": "[11C]-L-deprenyl-D2 λk3 post-dose", "setting": "brain MAO-B enzyme; [7]", "value": "0.05 (0.04–0.05)"}, {"measurement": "[11C]-L-deprenyl-D2 λk3 post-dose", "setting": "brain MAO-B enzyme; [8]", "value": "0.07 (0.06–0.09)"}, {"measurement": "[11C]-L-deprenyl-D2 λk3 post-dose", "setting": "brain MAO-B enzyme; [9]", "value": "0.11 (0.09–0.13)"}, {"measurement": "[11C]-L-deprenyl-D2 λk3 post-dose", "setting": "brain MAO-B enzyme; [10]", "value": "0.07 (0.06–0.09)"}, {"measurement": "[11C]-L-deprenyl-D2 λk3 post-dose", "setting": "brain MAO-B enzyme; [11]", "value": "0.12 (0.09–0.14)"}, {"measurement": "[11C]-L-deprenyl-D2 λk3 post-dose", "setting": "brain MAO-B enzyme; [12]", "value": "0.12 (0.09–0.13)"}, {"measurement": "[11C]-L-deprenyl-D2 λk3 post-dose", "setting": "brain MAO-B enzyme; [13]", "value": "0.08 (0.07–0.10)"}, {"measurement": "receptor occupancy at 0.2 mg", "setting": "brain MAO-B enzyme; [8]", "value": 70.2, "unit": "%"}, {"measurement": "receptor occupancy at 0.2 mg", "setting": "brain MAO-B enzyme; [9]", "value": 76.1, "unit": "%"}, {"measurement": "receptor occupancy at 0.2 mg", "setting": "brain MAO-B enzyme; [10]", "value": 68.7, "unit": "%"}, {"measurement": "receptor occupancy at 0.2 mg", "setting": "brain MAO-B enzyme; [11]", "value": 77.1, "unit": "%"}, {"measurement": "receptor occupancy at 0.2 mg", "setting": "brain MAO-B enzyme; [12]", "value": 76.8, "unit": "%"}, {"measurement": "receptor occupancy at 0.2 mg", "setting": "brain MAO-B enzyme; [13]", "value": 68.9, "unit": "%"}, {"measurement": "receptor occupancy at 5 mg", "setting": "brain MAO-B enzyme; frontal cortex", "value": 77.8, "unit": "%"}, {"measurement": "receptor occupancy at 5 mg", "setting": "brain MAO-B enzyme; hippocampus", "value": 83.3, "unit": "%"}, {"measurement": "receptor occupancy at 5 mg", "setting": "brain MAO-B enzyme; parietal cortex", "value": 78.1, "unit": "%"}, {"measurement": "receptor occupancy at 5 mg", "setting": "brain MAO-B enzyme; striatum", "value": 84.8, "unit": "%"}, {"measurement": "receptor occupancy at 5 mg", "setting": "brain MAO-B enzyme; thalamus", "value": 86.3, "unit": "%"}, {"measurement": "receptor occupancy at 5 mg", "setting": "brain MAO-B enzyme; whole brain", "value": 76.3, "unit": "%"}, {"measurement": "receptor occupancy at 1 mg", "setting": "brain MAO-B enzyme; 1 mg q.d. for 14 days, frontal cortex", "value": 79.7, "unit": "%"}, {"measurement": "receptor occupancy at 1 mg", "setting": "brain MAO-B enzyme; [3]", "value": 79.2, "unit": "%"}, {"measurement": "receptor occupancy at 1 mg", "setting": "brain MAO-B enzyme; [4]", "value": 78, "unit": "%"}, {"measurement": "receptor occupancy at 1 mg", "setting": "brain MAO-B enzyme; [5]", "value": 85, "unit": "%"}, {"measurement": "receptor occupancy at 1 mg", "setting": "brain MAO-B enzyme; [6]", "value": 86, "unit": "%"}, {"measurement": "receptor occupancy at 1 mg", "setting": "brain MAO-B enzyme; [7]", "value": 75.5, "unit": "%"}, {"measurement": "receptor occupancy at 0.1 mg", "setting": "brain MAO-B enzyme; frontal cortex", "value": 56.9, "unit": "%"}, {"measurement": "receptor occupancy at 0.1 mg", "setting": "brain MAO-B enzyme; hippocampus", "value": 53.8, "unit": "%"}, {"measurement": "receptor occupancy at 0.1 mg", "setting": "brain MAO-B enzyme; parietal cortex", "value": 55.6, "unit": "%"}, {"measurement": "receptor occupancy at 0.1 mg", "setting": "brain MAO-B enzyme; striatum", "value": 59.9, "unit": "%"}, {"measurement": "receptor occupancy at 0.1 mg", "setting": "brain MAO-B enzyme; thalamus", "value": 60.4, "unit": "%"}, {"measurement": "receptor occupancy at 0.1 mg", "setting": "brain MAO-B enzyme; whole brain", "value": 55.2, "unit": "%"}, {"measurement": "AEs reported as drug-related", "setting": "[1]; 16 treated subjects (AD and EC)", "value": "11 of 20"}, {"measurement": "Changes in laboratory parameters, vital signs or ECG measurements", "setting": "[1]; AD patients and EC subjects", "value": "no clinically significant changes"}, {"measurement": "Tolerability", "setting": "[1]; AD patients and EC subjects, 0.1–5 mg daily for 6–15 days", "value": "well tolerated"}, {"measurement": "Primary efficacy outcome on cognition (ADAS-Cog11)", "setting": "[2]", "value": "failed on the primary efficacy outcome on cognition"}]}
